Source: publication PMC3849192, “A Simple Method for Assessing Free Brain/Free Plasma Ratios Using an In Vitro Model of the Blood Brain Barrier” (PLoS ONE, 2013)

System: in vitro BBB model (co-culture of bovine brain capillary endothelial cells and rat glial cells)
Assay: In vitro BBB co-culture model, Cu,br/Cu,pl ratio
Conditions: for In vitro Cu,br/Cu,pl Mean 1 h: 2 µM in luminal compartment, abluminal/luminal concentration at 1 h; for In vitro Cu,br/Cu,pl Mean steady-state: steady-state ratio computed from 1 h data with the blue-norna steady-state calculator
Procedure: Figure 1 Schematic diagram of the experimental protocol. After 12 days of coculture in cell culture medium, both compartments of the in vitro BBB model consisting of a coculture of brain capillary endothlial cells and rat primary glial cells were filled with Hepes-buffered Ringer’s solution and the compounds dissolved at 2 µM were added in the luminal compartment (i.e donor). The presence of glial cells in the abluminal compartment was used to reproduce the non specific binding to brain tisssue within the brain prenchyma in vivo. After 1 hour, aliquots were taken from both compartments. In vitro Cu,br/Cu,pl at 1 h were calculated by dividing the concentration in the abluminal compartment (∼Cu,br) by the concentration in the luminal compartment (∼Cu,pl) at 1 h. The experimental data at 1 h were computed using the blue-norna steady-state calculator to generate the in vitro steady-state Cu,br/Cu,pl.
One hour after the addition of compounds dissolved at 2 µM in the luminal (i.e upper) compartment, aliquots were taken from both compartments previously filled with Hepes-buffered Ringer’s solution at the beginning of the experiment. […] The concentrations in both compartments of the in vitro assay after 1 h were computed using […] blue-norna.com to generate the in vitro steady-state Cu,br/Cu,pl.
The method of Dehouck et al. was used with minor modifications (Fig. 1). Bovine brain endothelial cells isolated from capillary fragments were cocultured with primary mixed glial cells from newborn Sprague–Dawley rats. The glial cells were isolated according to the method of Booher and Sensenbrenner and cultured for 3 weeks, plated on the bottom of cell culture clusters containing six wells each. The endothelial cells were seeded onto collagen-coated polycarbonate cell culture inserts (4.7 cm^2) (Corning Incorp. NY, USA), which were placed in the wells containing glial cells. The medium used for the coculture was Dulbecco’s modified Eagle’s medium supplemented with 10% calf serum, 10% horse serum, 2 mmol/L glutamine, 50 mg/L gentamicin and 1 µg/L basic fibroblast growth factor (Sigma). The medium was changed every second day. Experiments were usually initiated after 12 days of co-culture.
To monitor the integrity of the endothelial cell monolayer, the marker molecule [^14C] sucrose was added to the solution at a concentration of 0.05 µCi/ml. At the start of the transport experiments, buffered Ringer’s solution (pH = 7.4) was added to wells with glial cells. Inserts with brain endothelial cells were placed in these wells and drug solutions at 2 µM were added to the donor compartment. The plates were incubated for 1 h in a polymix shaker at 37°C with a low shaking velocity. Aliquots were taken from the donor compartment in the beginning and at the end of the experiments. The receiver compartments were sampled at the end of the experiments.
The amount of radiotracer in the abluminal compartment was measured in a liquid scintillation analyser (Packard Instrument Company, Meriden, USA). […] The concentrations of the test compound in all samples were analysed by MS/MS.
The mean free brain/plasma ratios were calculated from three individual experiments. One hour ratios were calculated by dividing the drug concentration in the receiver compartment by the free drug concentration in the donor compartment after 1 h. The experimental data at one hour (i.e concentration in both compartment at the beginning of the experiment and after 1 h) were computed using the blue-norna® steady-state calculator (www.blue-norna.com) to predict the in vivo steady-state Cu,br/Cu,pl ratios. For further details on this calculation method see file S1.
The in vivo steady-state Cu,br/Cu,pl were predicted from the in vitro experimental data collected after one hour according to the following equation: […]
Cdonor, t and Creceiver, t are the concentration of drug in the donor and receiver chambers at time t.

CN1CCN(C2=Nc3cc(Cl)ccc3Nc3ccccc32)CC1 [Clozapine]
In vitro Cu,br/Cu,pl Mean 1 h: 0.10 | In vitro Cu,br/Cu,pl Mean 1 h (listed as clozapine): 0.103 | In vitro Cu,br/Cu,pl Mean steady-state: 0.71 | In vitro Cu,br/Cu,pl Mean steady-state (listed as clozapine): 0.713
